In patent US20120070511A1, “MITOCHONDRIAL INHIBITORS AND USES THEREOF” (priority 2009, published 2012):

Key:
Type in all cases: cell-based
[1] = system: CHOP/GADD153 and cleaved caspase 3 in 4 MM cell lines; assay: Western blot of CHOP/GADD153 and cleaved caspase 3 (UPR-mediated apoptosis); conditions: all 4 MM cell lines
Protocol: Western Blot analysis: Cells are plated at 10^4 cell/cm^−2 for attached cells and 3×10^5/ml for suspension cells and grown under drug treatment for the indicated times. At the end of the treatment period, cells are collected and lysed with 1% SDS in 80 mM Tris-HCL (ph 7.4) buffer supplemented with a proteinase inhibitor cocktail. DNA is fragmented by sonication and protein concentrations are measured by microBCA protein assay kit (Pierce, Rockford, Ill.). Samples are mixed with 3× Laemmli sample buffer (Cell Signaling, Danvers, Mass.) and 40 μg of protein was run on a 12% SDS-polyacrylamide gel. Gels are transferred to nitrocellulose membranes (Amersham, Piscataway, N.J.) and probed with monoclonal rabbit anti-GRP94, anti GRP-78, anti-PDI, anti-CHOP/GADD153, anti-cleaved caspase 3 (Cell Signaling, Danvers, Mass.) and monoclonal mouse anti-β-actin (Sigma, St. Louis, Mo.). Following probing, membranes are washed and incubated with HRP-conjugated secondary antibody (Invitrogen, Carlsbad, Calif.). Following addition of 1:3 diluted femto-chemiluminescent substrate (Pierce, Rockford, Ill.) membranes were exposed to blue autoradiographic film (ISC bioexpress, Kaysville, Utah). Where indicated, membranes were stripped with Stripping Buffer (Pierce, Rockford, Ill.) and reprobed with anti-β-actin (Sigma-Aldrich, St. Louis, Mo.) primary antibody. When needed, the blots were quantified using Bio-Rad gel reader which employs Quality I software (Bio-Rad, Hercules, Calif.).

MM.1S and REH cell lines = assay: Mitochondrial Ca2+ (X-rhod-1) after CCCP; conditions: 10 μM CCCP; both cell types
Protocol: (§1) […]. A) ψm potential, B) mitochondrial Ca^2+ and C) cytoplasmic Ca^2+ levels were measured using the fluorochromes JC-1, X-rhod-1 and indo-1, respectively. After 10 min of initial baseline measurement, CCCP was added into each well to achieve a final concentration of 10 μM and changes in fluorescence intensity was assayed for up to 2 h. In the graphs the time point of CCCP addition is marked as ‘0’. The graph is an average of triplicate samples with +SD.
Measurement of cytoplasmic and mitochondrial calcium: Cytoplasmic Ca^2+ concentration was estimated by using the cell permeant ratiometric fluorochrome indo-1-AM (Invitrogen, Carlsbad, Calif., USA) while mitochondrial Ca^2+ was measured by X-Rhod-1-AM (Invitrogen, Carlsbad, Calif., USA). In the latter assay, to normalize mitochondrial Ca^2+ signal to mitochondria number, Mitotracker Green (Invitrogen, Carlsbad, Calif., USA) fluorescence was simultaneously analyzed. Experiments were performed in cells loaded with either 2.5 μM of indo-1 or 5 μM X-rhod-1 and 250 nM of Mitotracker at 37° C. for 45 min. Cells were, then, centrifuged at 400 g for 5 min and resuspended in their growth medium followed by distribution of 100 μl of aliquots into 96 well optical bottom plates (Nalge Nunc, Int., Rochester, N.Y., USA) and fluorescence was measured by Spectra Max Gemini Plus (Molecular Devices, Sunnyvale, Calif., USA). […]

MM.1S cells = assay: Cytoplasmic Ca2+ (indo-1) after CCCP; conditions: 10 μM CCCP
Protocol: as §1
Measurement of cytoplasmic and mitochondrial calcium: Cytoplasmic Ca^2+ concentration was estimated by using the cell permeant ratiometric fluorochrome indo-1-AM (Invitrogen, Carlsbad, Calif., USA) while mitochondrial Ca^2+ was measured by X-Rhod-1-AM (Invitrogen, Carlsbad, Calif., USA). In the latter assay, to normalize mitochondrial Ca^2+ signal to mitochondria number, Mitotracker Green (Invitrogen, Carlsbad, Calif., USA) fluorescence was simultaneously analyzed. Experiments were performed in cells loaded with either 2.5 μM of indo-1 or 5 μM X-rhod-1 and 250 nM of Mitotracker at 37° C. for 45 min. Cells were, then, centrifuged at 400 g for 5 min and resuspended in their growth medium followed by distribution of 100 μl of aliquots into 96 well optical bottom plates (Nalge Nunc, Int., Rochester, N.Y., USA) and fluorescence was measured by Spectra Max Gemini Plus (Molecular Devices, Sunnyvale, Calif., USA). The average of triplicates from untreated samples was used as control reading and increase in cytoplasmic or mitochondrial Ca^2+ was calculated as percent increase from control samples.

MM.1S and REH cells = assay: ATP levels after 6 h of CCCP treatment; conditions: 6 h CCCP; REH versus MM.1S
Protocol: A) Reversal of CCCP induced toxicity by either 10 μM BAPTA-AM or 50 μM of Z-VAD was investigated using trypan blue exclusion assays. The bars represent the average of triplicate samples +SD. B) ATP levels were assayed following 6 h of treatment with indicated concentrations of CCCP. The bars represent the average of triplicate samples +SD. C) Induction of UPR, activation of AMPK pathway and cleavage of caspase 3 was analyzed by western blots following 24 h treatment with indicated concentrations of CCCP in MM.1S and REH cell lines. β-Actin was used as a loading control. D) The quantification of phosphorylated AMPK and total AMPK bands in the previous panel was done using a Bio-Rad gel reader which employs Quality I software. The bars represent the fold increase in the ratio of p-AMPK/AMPK in treated versus untreated samples from three independent experiments +SD.

N#CC(C#N)=NNc1cccc(Cl)c1 [CCCP]
treatment time at which CHOP/GADD153 expression is noted [1]: 3 h
mitochondrial Ca2+ (MM.1S and REH cell lines): lowering of Ca^2+ concentration in the mitochondrial matrix
cytoplasmic Ca2+ levels directly after addition (MM.1S cells): go up in both cell types
cytoplasmic Ca2+ levels later (after clearance phase) (MM.1S cells): remain elevated
ATP levels (MM.1S and REH cells): decreased more significantly in REH cells, as compared to MM.1S cells
